Read-outs that look alike come from different tables or passages of the source.
Legend:
liver = conditions: cited from earlier work
[1] = molecular target: T1, ESR1 (estrogen receptor 1) (Homo sapiens, UniProt P03372); experiment: ATG_ERa_TRANS: Factorial reporter gene assay (HepG2); assay type: cell-based; conditions: HepG2 reporter
T1 construct: expressed in transfected cells; host or cells: HepG2
Method in brief: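 HepG2 cells transfected with multiplexed reporter libraries: cis-acting binding-site reporters (CIS) and a one-hybrid nuclear-receptor trans system (TRANS). Chemicals tested at seven concentrations, starting at the maximum tolerated concentration with three-fold serial dilutions.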

[2] = molecular target: T1, ESR1 (estrogen receptor 1); experiment: ATG_ERE_CIS: Factorial reporter gene assay (HepG2); assay type: cell-based; conditions: HepG2 reporter
Description: (§1) A multiple reporter transcription unit (MRTU) library consisting of 48 transcription factor binding sites was transfected into the HepG2 human liver hepatoma cell line. In addition to the cis-acting reporter genes (CIS), a modification of the approach was used to generate a trans-system (TRANS) with a mammalian one-hybrid assay consisting of an additional 25 MRTU library reporting the activity of nuclear receptor super-family members. […] These assays were performed by Attagene Inc. (Morrisville NC) under contract to EPA.
(§2) In addition to the cis-acting reporter genes (CIS), a modification of the approach was used to generate a trans-system (TRANS) with a mammalian one-hybrid assay consisting of an additional 25 MRTU library reporting the activity of nuclear receptor super-family members. […] Chemicals were then tested in the CIS and TRANS assays at seven concentrations starting at the MTC and followed by three-fold serial dilutions. These assays were performed by Attagene Inc. (Morrisville NC) under contract to EPA. Detailed description of the methods, data and analysis methods for this dataset will be presented in a separate publication.

[3] = molecular target: T2, PPARG (peroxisome proliferator-activated receptor gamma) (Homo sapiens, UniProt P37231); experiment: ATG_PPARg_TRANS: Factorial reporter gene assay (HepG2); assay type: cell-based; conditions: HepG2 reporter
T2 construct: expressed in transfected cells; host or cells: HepG2
T2 sequence (P37231 1-505): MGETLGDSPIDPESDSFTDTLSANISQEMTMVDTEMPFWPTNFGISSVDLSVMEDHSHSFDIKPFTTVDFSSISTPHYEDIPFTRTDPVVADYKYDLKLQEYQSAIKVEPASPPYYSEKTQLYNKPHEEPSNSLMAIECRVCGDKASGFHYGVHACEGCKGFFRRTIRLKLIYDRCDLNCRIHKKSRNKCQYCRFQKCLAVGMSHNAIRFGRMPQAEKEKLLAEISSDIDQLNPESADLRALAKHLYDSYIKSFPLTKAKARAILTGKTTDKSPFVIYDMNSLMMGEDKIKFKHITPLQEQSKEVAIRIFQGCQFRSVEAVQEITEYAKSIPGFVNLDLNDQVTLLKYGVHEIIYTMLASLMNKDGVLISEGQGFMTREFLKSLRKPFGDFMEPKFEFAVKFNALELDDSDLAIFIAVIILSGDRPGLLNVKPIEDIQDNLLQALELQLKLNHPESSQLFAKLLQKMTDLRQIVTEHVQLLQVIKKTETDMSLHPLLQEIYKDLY
Method in brief: (§3)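 Seven test concentrations were run, beginning at the MTC and diluted three-fold serially. PXRE activity came from cis reporters, a 48-site MRTU library in HepG2 hepatoma cells. ERRg, FXR and PPARg activity came from trans one-hybrid reporters, an additional 25-member MRTU set.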

[4] = molecular target: T3, RXRB (retinoid X receptor, beta) (Homo sapiens, UniProt P28702); experiment: ATG_RXRb_TRANS: Factorial reporter gene assay (HepG2); assay type: cell-based; conditions: HepG2 reporter
T3 construct: expressed in transfected cells; host or cells: HepG2
T3 sequence (P28702 1-533): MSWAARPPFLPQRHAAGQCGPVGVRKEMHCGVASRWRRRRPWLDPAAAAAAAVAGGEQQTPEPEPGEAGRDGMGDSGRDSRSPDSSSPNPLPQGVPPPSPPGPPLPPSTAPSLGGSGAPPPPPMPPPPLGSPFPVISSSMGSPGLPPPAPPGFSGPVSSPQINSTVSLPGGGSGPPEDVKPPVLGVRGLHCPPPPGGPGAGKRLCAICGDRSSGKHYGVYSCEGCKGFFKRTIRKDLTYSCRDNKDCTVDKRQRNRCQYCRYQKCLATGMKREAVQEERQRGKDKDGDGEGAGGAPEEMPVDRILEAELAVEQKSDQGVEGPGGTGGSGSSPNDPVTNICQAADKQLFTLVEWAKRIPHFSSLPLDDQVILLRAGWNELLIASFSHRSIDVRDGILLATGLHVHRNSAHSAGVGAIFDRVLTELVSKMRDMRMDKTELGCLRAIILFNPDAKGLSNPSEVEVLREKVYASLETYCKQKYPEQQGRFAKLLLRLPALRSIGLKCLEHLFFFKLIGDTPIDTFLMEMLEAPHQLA
Description: as §1, §2

PXR (NR1I2) [5] = molecular target: T4, PXR (NR1I2) (Homo sapiens, UniProt O75469); experiment: NVS_NR_hPXR: Human PXR Fluormone PXR (SXR) green (cell-free HTS); assay type: binding
T4 sequence (O75469 1-434): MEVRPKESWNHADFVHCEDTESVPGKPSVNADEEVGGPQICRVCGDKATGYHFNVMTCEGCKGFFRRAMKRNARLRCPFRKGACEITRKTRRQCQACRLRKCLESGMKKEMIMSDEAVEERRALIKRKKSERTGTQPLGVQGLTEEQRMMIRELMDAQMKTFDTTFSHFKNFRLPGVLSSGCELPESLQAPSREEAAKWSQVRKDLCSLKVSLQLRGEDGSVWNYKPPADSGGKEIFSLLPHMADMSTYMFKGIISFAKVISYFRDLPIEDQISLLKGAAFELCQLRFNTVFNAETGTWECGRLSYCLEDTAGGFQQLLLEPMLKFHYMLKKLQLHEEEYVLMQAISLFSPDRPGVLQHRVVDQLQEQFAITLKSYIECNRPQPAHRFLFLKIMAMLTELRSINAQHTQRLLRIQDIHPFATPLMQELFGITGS
Method in brief: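 Responses were normalized to same-plate solvent controls as percent of neutral control. AC50 values came from Hill-equation fits of concentration-response curves.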

Rat Liver [6] = conditions: chronic study, rat liver; ref ToxRefDB; cited from earlier work
Rat Liver [7] = conditions: chronic study, rat liver; ref ToxRefDB; cited from earlier work; remark: listed apart in the source
Rat Liver [8] = conditions: chronic study, rat liver; ref ToxRefDB; cited from earlier work; remark: listed apart in the source
CAR (NR1I3) = molecular target: T5, CAR (NR1I3) (Homo sapiens, UniProt Q14994); experiment: ATG_CAR_TRANS: Factorial reporter gene assay (HepG2); assay type: cell-based; set-up: endogenous in cells; host or cells: HepG2; conditions: HepG2 reporter
T5 sequence (Q14994 1-352): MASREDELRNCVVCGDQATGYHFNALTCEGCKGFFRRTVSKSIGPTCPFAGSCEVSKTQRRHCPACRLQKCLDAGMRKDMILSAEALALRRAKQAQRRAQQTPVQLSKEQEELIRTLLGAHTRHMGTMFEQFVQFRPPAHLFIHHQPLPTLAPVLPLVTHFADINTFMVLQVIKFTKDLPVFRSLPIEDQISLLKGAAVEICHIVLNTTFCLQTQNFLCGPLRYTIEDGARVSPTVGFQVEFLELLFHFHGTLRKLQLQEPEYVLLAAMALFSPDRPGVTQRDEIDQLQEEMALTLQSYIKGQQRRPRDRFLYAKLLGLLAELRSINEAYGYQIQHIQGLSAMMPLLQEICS
Description: as §1, §2

PXR (NR1I2) [9] = molecular target: T4, PXR (NR1I2); experiment: ATG_PXRE_CIS: Factorial reporter gene assay (HepG2); assay type: cell-based; set-up: endogenous in cells; host or cells: HepG2; conditions: HepG2 reporter
Method in brief: as §3

[10] = 2-year chronic feeding studies in both rat and mouse, ToxRefDB ref 5

T1 sequence (P03372 whole entry): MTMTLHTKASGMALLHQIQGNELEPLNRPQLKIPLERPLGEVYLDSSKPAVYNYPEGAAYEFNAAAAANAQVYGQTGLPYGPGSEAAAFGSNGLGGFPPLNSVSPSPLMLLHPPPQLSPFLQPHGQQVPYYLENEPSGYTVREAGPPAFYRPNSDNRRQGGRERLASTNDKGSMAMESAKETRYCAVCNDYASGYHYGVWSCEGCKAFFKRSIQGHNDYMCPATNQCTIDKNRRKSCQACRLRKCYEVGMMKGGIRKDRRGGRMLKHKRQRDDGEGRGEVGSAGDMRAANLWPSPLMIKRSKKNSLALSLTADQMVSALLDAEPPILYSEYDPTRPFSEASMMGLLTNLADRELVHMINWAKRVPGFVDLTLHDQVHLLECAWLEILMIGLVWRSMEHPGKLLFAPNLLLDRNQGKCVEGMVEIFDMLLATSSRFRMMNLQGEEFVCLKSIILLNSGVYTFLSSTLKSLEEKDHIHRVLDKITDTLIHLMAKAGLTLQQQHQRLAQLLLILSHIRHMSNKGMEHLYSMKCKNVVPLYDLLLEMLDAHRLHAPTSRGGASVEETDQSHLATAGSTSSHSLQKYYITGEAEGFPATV

For `C=C(C)CN(CC)c1c([N+](=O)[O-])cc(C(F)(F)F)cc1[N+](=O)[O-]` [Ethalfluralin, N-ethyl-N-(2-methylprop-2-en-1-yl)-2,6-dinitro-4-(trifluoromethyl)aniline], the “liver injury (liver histopathology)” value (liver; [10]) is listed as “negative for any liver injury”.
In the case of `CC1(C(=O)Nc2ccc(O)c(Cl)c2Cl)CCCCC1` [Fenhexamid, N-(2,3-dichloro-4-hydroxyphenyl)-1-methylcyclohexanecarboxamide], the “liver injury (liver histopathology)” value (liver; in vivo) is given as “negative for any liver injury”.
In the case of `CCNP(=S)(OC)O/C(C)=C/C(=O)OC(C)C` (stereo not drawn) [Propetamphos, isopropyl (2E)-3-{[(ethylamino)(methoxy)phosphorothioyl]oxy}but-2-enoate], the “liver injury (liver histopathology)” value (liver; [10]) is listed as “negative for any liver injury”.
In the case of `Cc1nn(C)c(Oc2ccccc2)c1/C=N/OCc1ccc(C(=O)OC(C)(C)C)cc1` [(Z,E)-Fenpyroximate, tert-butyl 4-[({[(1E)-(1,3-dimethyl-5-phenoxy-1H-pyrazol-4-yl)methylene]amino}oxy)methyl]benzoate], the “liver injury (liver histopathology)” value (liver; [10]) is listed as “negative for any liver injury”.
`O=[N+]([O-])c1c(Cl)c(Cl)c(Cl)c(Cl)c1Cl` [r278] gave an ATG_ERa_TRANS [1] of 4.284, an ATG_ERE_CIS [2] of 4.854 and an ATG_PPARg_TRANS [3] of 4.409. For the same compound, the ATG_RXRb_TRANS [4] was 4.387, the NVS_NR_hPXR (PXR (NR1I2) [5]) was 4.314 and the CHR_Rat_Liver_1_AnyLesion (Rat Liver [6]) was 6. The CHR_Rat_Liver_2_PreneoplasticLesion (Rat Liver [7]) was 6, the CHR_Rat_Liver_3_NeoplasticLesion (Rat Liver [8]) was 0 and the ATG_CAR_TRANS (CAR (NR1I3)) was 4.377. For the same compound, the ATG_PXRE_CIS (PXR (NR1I2) [9]) was 4.959.
For `CCOP(=S)(Oc1cnc(C(C)(C)C)nc1)OC(C)C` (stereo not drawn) [Tebupirimfos, O-(2-tert-butylpyrimidin-5-yl) O-ethyl O-isopropyl thiophosphate], the “liver injury (liver histopathology)” value (liver; [10]) is listed as “negative for any liver injury”.
For `COP(=S)(OC)Oc1ccc(SC)c(C)c1` [Fenthion, O,O-dimethyl O-[3-methyl-4-(methylthio)phenyl] thiophosphate], the “liver injury (liver histopathology)” value (liver; [10]) is given as “negative for any liver injury”.
For `Cc1ccc(-c2c(Cl)nc(C#N)n2S(=O)(=O)N(C)C)cc1` [Cyazofamid, 4-chloro-2-cyano-N,N-dimethyl-5-(4-methylphenyl)-1H-imidazole-1-sulfonamide], the “liver injury (liver histopathology)” value (liver; in vivo) is listed as “negative for any liver injury”.
For `CCOP(=S)(OCC)Oc1nc(Cl)n(C(C)C)n1` [Isazofos, O-(5-chloro-1-isopropyl-1H-1,2,4-triazol-3-yl) O,O-diethyl thiophosphate], the “liver injury (liver histopathology)” value (liver; [10]) is given as “negative for any liver injury”.

— publication PMC3038857, “Using Nuclear Receptor Activity to Stratify Hepatocarcinogens” (PLoS ONE, 2011)
